Results published in patent publication US20110039721A1, “METHOD FOR PREDICTION ABOUT CARCINOGENICITY OF SUBSTANCE IN RODENT” (Chemicals Evaluation and Research Institute, priority 2007, published 2011).

How the values were obtained:
[1] = tested on: mRNA expressed from the genes (A) to (D) in rat liver; assay: Behavior of genes (mRNA expression level, oligo-DNA microarray) in rat liver after 28-day oral administration; type: in vivo; conditions: mRNA vs vehicle control group
Summary of the method: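 Liver mRNA measured by oligo-DNA microarray after 28 days of once-daily oral gavage in 5-week-old male F344 rats (n=4 per group), with vehicle controls given equal solvent volume. Significance threshold: 1.5-fold up or down versus control, with changes opposite in direction to other carcinogens counted as not significant.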

[2] = tested on: rodent; conditions: classification of the substance (C+/C−); cited from earlier work
[3] = classification of the substance (M+/M−); cited from earlier work
[4] = tested on: liver; conditions: classification of the substance (Cr+/Cr−); cited from earlier work
[5] = gene group (A), Unigene No. Rn.167075
[6] = gene group (C), Unigene No. Rn.120914

Clc1ccc(Cl)cc1 [TS026, 1,4-Dichlorobenzene]
−: Behavior of gene caused by administration of chemical substance, Gene No. 4846 ([1]; gene group (A), Unigene No. Rn.144554) | Behavior of gene caused by administration of chemical substance, Gene No. 2026 [1, 5] | Behavior of gene caused by administration of chemical substance, Gene No. 4218 [1, 5] | Behavior of gene caused by administration of chemical substance, Gene No. 6182 ([1]; gene group (A), Unigene No. Rn.5834) | Behavior of gene caused by administration of chemical substance, Gene No. 5600 ([1]; gene group (A), Unigene No. Rn.9836) | Behavior of gene caused by administration of chemical substance, Gene No. 2045 ([1]; gene group (B), Unigene No. Rn.19329) | Behavior of gene caused by administration of chemical substance, Gene No. 2203 ([1]; gene group (B), Unigene No. Rn.21240) | Behavior of gene caused by administration of chemical substance, Gene No. 725 ([1]; gene group (C), Unigene No. Rn.108075) | Behavior of gene caused by administration of chemical substance, Gene No. 1163 ([1]; gene group (C), Unigene No. Rn.11766) | Behavior of gene caused by administration of chemical substance, Gene No. 4973 ([1]; gene group (C), Unigene No. Rn.118529) | Behavior of gene caused by administration of chemical substance, Gene No. 1334 [1, 6] | Behavior of gene caused by administration of chemical substance, Gene No. 6620 [1, 6] | Behavior of gene caused by administration of chemical substance, Gene No. 5878 ([1]; gene group (C), Unigene No. Rn.143213) | Behavior of gene caused by administration of chemical substance, Gene No. 1131 ([1]; gene group (C), Unigene No. Rn.144946) | Behavior of gene caused by administration of chemical substance, Gene No. 1562 ([1]; gene group (C), Unigene No. Rn.14744) | Behavior of gene caused by administration of chemical substance, Gene No. 1741 ([1]; gene group (C), Unigene No. Rn.1647) | Behavior of gene caused by administration of chemical substance, Gene No. 893 ([1]; gene group (C), Unigene No. Rn.164817) | Behavior of gene caused by administration of chemical substance, Gene No. 154 ([1]; gene group (C), Unigene No. Rn.185941) | Behavior of gene caused by administration of chemical substance, Gene No. 1993 ([1]; gene group (C), Unigene No. Rn.18728) | Behavior of gene caused by administration of chemical substance, Gene No. 813 ([1]; gene group (C), Unigene No. Rn.201760) | Behavior of gene caused by administration of chemical substance, Gene No. 2494 ([1]; gene group (C), Unigene No. Rn.23969) | Behavior of gene caused by administration of chemical substance, Gene No. 2546 ([1]; gene group (C), Unigene No. Rn.24561) | Behavior of gene caused by administration of chemical substance, Gene No. 3776 ([1]; gene group (C), Unigene No. Rn.43232) | Behavior of gene caused by administration of chemical substance, Gene No. 3929 ([1]; gene group (C), Unigene No. Rn.4620) | Behavior of gene caused by administration of chemical substance, Gene No. 1119 ([1]; gene group (C), Unigene No. Rn.9757) | Behavior of gene caused by administration of chemical substance, Gene No. 6742 ([1]; gene group (C), Unigene No. Rn.9779) | Behavior of gene caused by administration of chemical substance, Gene No. 5634 ([1]; gene group (C), Unigene No. Rn.9862)
+: Behavior of gene caused by administration of chemical substance, Gene No. 1494 ([1]; gene group (B), Unigene No. Rn.1430) | Behavior of gene caused by administration of chemical substance, Gene No. 533 ([1]; gene group (C), Unigene No. Rn.106184) | Behavior of gene caused by administration of chemical substance, Gene No. 4095 ([1]; gene group (C), Unigene No. Rn.119024) | Behavior of gene caused by administration of chemical substance, Gene No. 6303 ([1]; gene group (C), Unigene No. Rn.123063) | Behavior of gene caused by administration of chemical substance, Gene No. 6026 ([1]; gene group (C), Unigene No. Rn.167685) | Behavior of gene caused by administration of chemical substance, Gene No. 5726 ([1]; gene group (D), Unigene No. Rn.9939)
M−: Mutagenicity by Ames test [3]
C+: Carcinogenicity [2]
Cr−: Liver carcinogenicity [4]
